What was measured:
Experiment in all cases: relative viability (nuclei count vs DMSO), 5 days (fraction); higher = more cells survive
RERF-LC-KJ = tested on: RERF-LC-KJ
Procedure, shortened: (§1)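 Relative viability was taken as the ratio of nuclei in treated wells to nuclei in vehicle wells. Lung cancer cell lines in 1536-well plates received compounds by pin tool one day after seeding, either one drug alone or a fixed anchor-drug dose plus five library-drug doses (not always all listed) in √10 steps. Nuclei were counted on 4× images after 5 days of treatment, and values are medians of duplicate plates.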

CAL-12T = tested on: CAL-12T
Procedure, shortened: as §1

NCI-H2405 = tested on: NCI-H2405
Procedure, shortened: as §1

LXF-289 = tested on: LXF-289
Procedure, shortened: as §1

HCC-827 = tested on: HCC-827
Procedure, shortened: as §1

NCI-H647 = tested on: NCI-H647
Procedure, shortened: as §1

NCI-H1395 = tested on: NCI-H1395
Procedure, shortened: as §1

NCI-H322M = tested on: NCI-H322M
Procedure, shortened: as §1

HOP-62 = tested on: HOP-62
Procedure, shortened: as §1

HCC-44 = tested on: HCC-44
Procedure, shortened: as §1

NCI-H1793 = tested on: NCI-H1793
Procedure, shortened: as §1

NCI-H1944 = tested on: NCI-H1944
Procedure, shortened: as §1

LCLC-97TM1 = tested on: LCLC-97TM1
Procedure, shortened: as §1

NCI-H3122 = tested on: NCI-H3122
Procedure, shortened: as §1

NCI-H2087 = tested on: NCI-H2087
Procedure, shortened: as §1

LCLC-103H = tested on: LCLC-103H
Procedure, shortened: as §1

NCI-H1437 = tested on: NCI-H1437
Procedure, shortened: as §1

201T = tested on: 201T
Procedure, shortened: as §1

BEN = tested on: BEN
Procedure, shortened: as §1

NCI-H727 = tested on: NCI-H727
Procedure, shortened: as §1

CC1(C)CCC(c2ccc(Cl)cc2)=C(CN2CCN(c3ccc(C(=O)NS(=O)(=O)c4ccc(N[C@H](CCN5CCOCC5)CSc5ccccc5)c(S(=O)(=O)C(F)(F)F)c4)cc3)CC2)C1 [Navitoclax] + NC(=O)Nc1cc(-c2cccc(F)c2)sc1C(=O)N[C@H]1CCCNC1 [AZD7762] (partner 0.2 µM)
relative viability (RERF-LC-KJ; first compound 0.005 µM): 1
relative viability (RERF-LC-KJ; first compound 0.01581 µM): 1.08
relative viability (RERF-LC-KJ; first compound 0.05 µM): 0.824
relative viability (RERF-LC-KJ; first compound 0.1581 µM): 1.12
relative viability (RERF-LC-KJ; first compound 0.5 µM): 0.921
relative viability (CAL-12T; first compound 0.005 µM): 0.626
relative viability (CAL-12T; first compound 0.01581 µM): 0.593
relative viability (CAL-12T; first compound 0.05 µM): 0.627
relative viability (CAL-12T; first compound 0.1581 µM): 0.619
relative viability (CAL-12T; first compound 0.5 µM): 0.541
relative viability (NCI-H2405; first compound 0.005 µM): 0.703
relative viability (NCI-H2405; first compound 0.01581 µM): 0.857
relative viability (NCI-H2405; first compound 0.05 µM): 0.622
relative viability (NCI-H2405; first compound 0.1581 µM): 0.698
relative viability (NCI-H2405; first compound 0.5 µM): 0.653
relative viability (LXF-289; first compound 0.005 µM): 1.11
relative viability (LXF-289; first compound 0.01581 µM): 1.18
relative viability (LXF-289; first compound 0.05 µM): 0.924
relative viability (LXF-289; first compound 0.1581 µM): 1.06
relative viability (LXF-289; first compound 0.5 µM): 1.04
relative viability (HCC-827; first compound 0.005 µM): 0.274
relative viability (HCC-827; first compound 0.01581 µM): 0.188
relative viability (HCC-827; first compound 0.05 µM): 0.186
relative viability (HCC-827; first compound 0.1581 µM): 0.199
relative viability (HCC-827; first compound 0.5 µM): 0.235
relative viability (NCI-H647; first compound 0.005 µM): 0.413
relative viability (NCI-H647; first compound 0.01581 µM): 0.446
relative viability (NCI-H647; first compound 0.05 µM): 0.492
relative viability (NCI-H647; first compound 0.1581 µM): 0.343
relative viability (NCI-H647; first compound 0.5 µM): 0.438
relative viability (NCI-H1395; first compound 0.005 µM): 0.368
relative viability (NCI-H1395; first compound 0.01581 µM): 0.41
relative viability (NCI-H1395; first compound 0.05 µM): 0.357
relative viability (NCI-H1395; first compound 0.1581 µM): 0.385
relative viability (NCI-H1395; first compound 0.5 µM): 0.405
relative viability (NCI-H322M; first compound 0.005 µM): 0.648
relative viability (NCI-H322M; first compound 0.01581 µM): 0.626
relative viability (NCI-H322M; first compound 0.05 µM): 0.511
relative viability (NCI-H322M; first compound 0.1581 µM): 0.587
relative viability (NCI-H322M; first compound 0.5 µM): 0.679
relative viability (HOP-62; first compound 0.005 µM): 0.721
relative viability (HOP-62; first compound 0.01581 µM): 0.694
relative viability (HOP-62; first compound 0.05 µM): 0.514
relative viability (HOP-62; first compound 0.1581 µM): 0.512
relative viability (HOP-62; first compound 0.5 µM): 0.384
relative viability (HCC-44; first compound 0.005 µM): 0.935
relative viability (HCC-44; first compound 0.01581 µM): 0.957
relative viability (HCC-44; first compound 0.05 µM): 0.961
relative viability (HCC-44; first compound 0.1581 µM): 0.915
relative viability (HCC-44; first compound 0.5 µM): 0.881
relative viability (NCI-H1793; first compound 0.005 µM): 0.488
relative viability (NCI-H1793; first compound 0.01581 µM): 0.613
relative viability (NCI-H1793; first compound 0.1581 µM): 0.402
relative viability (NCI-H1793; first compound 0.5 µM): 0.246
relative viability (NCI-H1944; first compound 0.005 µM): 0.52
relative viability (NCI-H1944; first compound 0.01581 µM): 0.637
relative viability (NCI-H1944; first compound 0.1581 µM): 0.489
relative viability (NCI-H1944; first compound 0.5 µM): 0.582
relative viability (LCLC-97TM1; first compound 0.005 µM): 0.236
relative viability (LCLC-97TM1; first compound 0.01581 µM): 0.301
relative viability (LCLC-97TM1; first compound 0.05 µM): 0.181
relative viability (LCLC-97TM1; first compound 0.1581 µM): 0.253
relative viability (LCLC-97TM1; first compound 0.5 µM): 0.22
relative viability (NCI-H3122; first compound 0.005 µM): 0.982
relative viability (NCI-H3122; first compound 0.01581 µM): 0.971
relative viability (NCI-H3122; first compound 0.05 µM): 0.895
relative viability (NCI-H3122; first compound 0.1581 µM): 0.973
relative viability (NCI-H3122; first compound 0.5 µM): 0.985
relative viability (NCI-H2087; first compound 0.005 µM): 1.18
relative viability (NCI-H2087; first compound 0.01581 µM): 1.38
relative viability (NCI-H2087; first compound 0.1581 µM): 1.29
relative viability (NCI-H2087; first compound 0.5 µM): 1.41
relative viability (LCLC-103H; first compound 0.005 µM): 0.806
relative viability (LCLC-103H; first compound 0.01581 µM): 0.839
relative viability (LCLC-103H; first compound 0.05 µM): 0.736
relative viability (LCLC-103H; first compound 0.1581 µM): 0.826
relative viability (LCLC-103H; first compound 0.5 µM): 0.8
relative viability (NCI-H1437; first compound 0.005 µM): 1.06
relative viability (NCI-H1437; first compound 0.01581 µM): 1.23
relative viability (NCI-H1437; first compound 0.05 µM): 1.06
relative viability (NCI-H1437; first compound 0.1581 µM): 1.08
relative viability (NCI-H1437; first compound 0.5 µM): 1.05
relative viability (201T; first compound 0.005 µM): 0.656
relative viability (201T; first compound 0.01581 µM): 0.656
relative viability (201T; first compound 0.05 µM): 0.41
relative viability (201T; first compound 0.1581 µM): 0.565
relative viability (201T; first compound 0.5 µM): 0.504
relative viability (BEN; first compound 0.005 µM): 0.705
relative viability (BEN; first compound 0.01581 µM): 0.667
relative viability (BEN; first compound 0.05 µM): 0.647
relative viability (BEN; first compound 0.1581 µM): 0.725
relative viability (BEN; first compound 0.5 µM): 0.377
relative viability (NCI-H727; first compound 0.005 µM): 0.656
relative viability (NCI-H727; first compound 0.01581 µM): 0.595
relative viability (NCI-H727; first compound 0.05 µM): 0.539
relative viability (NCI-H727; first compound 0.1581 µM): 0.674
relative viability (NCI-H727; first compound 0.5 µM): 0.594

Source: the supplement of paper PMC10307832
